{
  "source": "patent US20240342138A1",
  "about": "“MICROTUBULE TARGETING AGENTS” (BPGbio, Inc., priority 2023, published 2024)",
  "key": {"[1]": {"assay": "Blood brain barrier permeability (PVDF membrane coated with porcine brain polar lipid extract)", "format": "in vitro ADME", "details": "for recovery at 4 h, 10 μM: pig, not told", "description": "Preparation of Donor Solution a) 0.2 mM working solution was prepared by diluting 10 mM stock solution with DMSO. b) 10 μM donor solution (5% DMSO) was prepared by diluting 20 μL of working solution with 380 μL PBS. 2) 150 μL of 10 μM donor solutions to each well of the donor plate, whose PVDF membrane was precoated with 5 μL of 1% brain polar lipid extract (Porcine)/dodecane mixture. Duplicates were prepared. 3) 300 μL of PBS was added to each well of the PTFE acceptor plate. 4) The donor plate and acceptor plate were combined together and incubated for 4h at room temperature with shaking at 300 rpm. 5) Preparation of TO sample: 20 μL donor solution was transferred to new well followed by the addition of 250 μL PBS (DF: 13.5), 130 μL ACN (containing internal standard) as TO sample. 6) Preparation of acceptor sample: The plate was removed from incubator. 270 μL solution was transferred from each acceptor well and mixed with 130 μL ACN (containing internal standard) as acceptor sample. 7) Preparation of donor sample: […] was transferred from each donor well and mixed with 250 μL PBS (DF: 13.5), 130 μL ACN (containing internal standard) as donor sample. 8) Acceptor samples and donor samples were all analyzed by LC/MS/MS."}, "HCT116 cells": {"tested_on": "HCT116 cells", "assay": "Kinetochore assembly, immunocytochemistry / confocal microscopy", "format": "cell-based", "details": "300 nM, 24h", "description": "The HCT116 cells were cultured using DMEM media supplemented with 10% FBS and 1% Pen/Strep. Cells were maintained to a maximum of 80% confluency before being split and plated into coverslips in 12-well plates.\n1. HCT116 cells were plated on Poly-D-Lysine German Glass Coverslips (#1.5, 18 mm)\n2. After 24h cells were treated with 300 nM of Compound 1 and Nocodozole.\n3. After 24h cells were washed briefly with PBS and fixed with warm 4% paraformaldehyde at room temperature for 10 min.\n4. Cells were permeabilized and blocked in 10% goat serum, 0.5% Triton-X in PBS for 1 hr.\n5. Cells were incubated with Primary antibodies overnight.\n6. Washed 3× with PBS for 10 min\n7. Incubated with secondary antibodies at room temperature for 1 hr.\n8. Washed 3× with PBS for 10 min\n9. Coverslips were mounted with ProLong Gold Anti-Fade Mount with DAPI and imaged with Olympus FV1200 MPE Microscope.\n10. Images were collected with identical confocal settings for all of the samples and Z-stacked images were projected with maximal projection mode using Fluor View Software.\n1. Selected cells of interest using the drawing/selection tools (i.e. rectangle, circle, polygon or freeform).\n2. From the Analyze menu selected “Measure.”\n3. Selected region with no fluorescence to be my background.\n4. Repeated these steps for other cells in the field of view\n5. Used the CTCF formula to calculate Mad1 expression:\nCTCF=Integrated Density−(Area of selected cell×Mean fluorescence of background readings)\nMicrographs were imaged using Olympus FV1200 MPE confocal microscope at 63× oil. White arrows indicate dividing cells. Representative images of N=3 biological replicates. Significance in difference of treated HCT116 cells to untreated cells was tested by Student t test (** p<0.01)."}, "[2]": {"tested_on": "colchicine binding site of tubulin", "assay": "EBI labeling assay in MIA PaCa2 cells (Western blot)", "format": "cell-based", "details": "2 hours compound, then 2 hours 100 μM EBI, FIG. 2, FIG. 3", "procedure": "MIA PaCa2 cells were cultured in DMEM+10% FBS and 1% P/S. Cells were plated at 1.5-2×10^6 in 60 mm dishes. For drug treatments, cells were treated the day after plating with 0.1% DMSO or the compounds tested at the concentrations indicated in FIG. 2 for 2 hours.\n• Cells were treated with compounds for 2 hours at 37°, 5% CO2 (in the cell culture incubator), and then for an additional 2 hours with 100 μM EBI (with compounds present) under the same conditions. • Cells were then harvested with Trypsin and pelleted at 500 g for 3 minutes. • Cells were rinsed in 1 mL PBS and transferred to clean epi tubes. […] BCA assay plates were incubated for 15 minutes in the 37-degree incubator in the outer molecular lab. • After protein normalization (including addition of reducing Laemmli buffer from a 6× stock) samples were boiled at 95 degrees for 3 minutes and frozen for subsequent Western Blotting.\nSignificance in difference of treated MIA PaCa-2 cells to 0.1% DMSO treated cells were tested by Student t test (* p<0.05; ** p<0.01; *** p<0.001)."}, "CTG-1017": {"tested_on": "CTG-1017", "details": "CRO historical data; cited from earlier work"}, "[3]": {"tested_on": "Triple Negative Breast Cancer patient-derived organoids CTG-1520, CTG-0896, CTG-1017", "details": "CTG-1520 ex vivo; Champion Oncology Lumen Platform database; cited from earlier work"}, "[4]": {"tested_on": "Triple Negative Breast Cancer patient-derived organoids CTG-1520, CTG-0896, CTG-1017", "assay": "Viability of PDO models of taxane resistance (CellTiter-Glo, 5 days)", "format": "cell-based, human", "details": "same patient before (CTG-1017) and after (CTG-1520) taxane-based chemotherapy", "description": "FIGS. 9A and 9B show potency of Compound 1 in patient-derived organoid (PDO) models of taxane resistance. Patient-derived organoids were treated with Compound 1, paclitaxel or controls (0.1% DMSO, positive control—10% DMSO) for 5 days. Viability was assessed using the CellTiter-Glo® assay. IC50 and maximal (max) inhibition values were extrapolated from the viability curves. A) Model overview and dose response curves to Compound 1 and paclitaxel. B) Summary of CellTiter-Glo results in all three models tested. Compiled data of N=4 replicates.\nCTG-1520 and CTG-0896 were derived from Triple Negative Breast Cancer (TNBC) patients post-treatment, and progression on a taxane-based therapy and the models' resistance to paclitaxel was confirmed by testing in vivo PDX (Patient-derived xenograft) tumor growth. […] Compound 1 and paclitaxel were tested head-to-head in each model in a dose-curve setting. 10% DMSO was used as the positive control for induction of 100% cell cytotoxicity."}, "CTG-1520 PDX tumors": {"tested_on": "CTG-1520 PDX tumors", "details": "CTG-1520 in vivo; Champion Oncology Lumen Platform database; cited from earlier work"}},
  "data": [
    {"compound": "CC(C)NCC(O)COc1ccc(CC(N)=O)cc1", "note": "(centres unmarked) [Atenolol, reference compound]", "values": [
      {"measurement": "recovery at 4 h, 10 μM", "setting": "[1]", "value": "< 100", "unit": "%"}
    ]},
    {"compound": "CC(C)NCC(O)COc1cccc2ccccc12", "note": "(centres unmarked) [Propranolol, reference compound]", "values": [
      {"measurement": "Permeability", "setting": "[1]; 10 μM, 4 h", "value": "High"},
      {"measurement": "Papp at 4 h, 10 μM", "setting": "[1]; PAMPA, read-out: Mean Pe", "value": 4.74, "unit": "×10⁻⁶ cm/s"},
      {"measurement": "recovery at 4 h, 10 μM", "setting": "[1]", "value": 27.7, "unit": "%"}
    ]},
    {"compound": "COC(=O)Nc1nc2cc(C(=O)c3cccs3)ccc2[nH]1", "note": "[nocodazole, reference compound]", "values": [
      {"measurement": "Mitotic spindle formation", "setting": "HCT116 cells; FIG. 4A", "value": "lack of proper mitotic spindle formation"},
      {"measurement": "Mad1 signal intensity", "setting": "HCT116 cells; FIG. 4B", "value": "increase in Mad1 signal intensity"},
      {"measurement": "Formation of EBI:β-tubulin adducts", "setting": "[2]", "value": "inhibited formation of the EBI:β-tubulin adducts"}
    ]},
    {"compound": "CC(=O)O[C@H]1C(=O)[C@@]2(C)[C@H]([C@H](OC(=O)c3ccccc3)[C@]3(O)C[C@H](OC(=O)[C@H](O)[C@@H](NC(=O)c4ccccc4)c4ccccc4)C(C)=C1C3(C)C)[C@]1(OC(C)=O)CO[C@@H]1C[C@@H]2O", "note": "[paclitaxel]", "values": [
      {"measurement": "Sensitivity of model in vivo", "setting": "CTG-1017", "value": "sensitive"},
      {"measurement": "max effect", "setting": "[3]", "value": 29.1, "unit": "%"},
      {"measurement": "Retention of potency in matched PDO models", "setting": "[4]", "value": "did not"},
      {"measurement": "TGI", "setting": "CTG-1520 PDX tumors", "value": 10, "unit": "%"}
    ]}
  ]
}
